# Measured values from PubChem BioAssay AID1963433 (Molecular Pharmacology Branch, DTP, NCI, 2024).
# Values joined by “and” are separate entries in the source; they are usually repeats but may differ in a detail not shown here. Equal entries are not always repeated.
# Test system: 772245-204-R-J1-PDC complex spheroid growth
# Assay: Anticancer human tumor 772245-204-R-J1-PDC patient-derived rhabdomyosarcoma cell line growth inhibition [Asc]
# Details: for viability, T/C: stronger effect = lower value
# In short: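 Tumor cells were grown as multicellular spheroids with stromal HUVEC and mesenchymal stem cells and treated singly or in combination. Concentrations fell in half-log steps from the clinical Cmax, or from 10 microM where none was known.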
# [1] = curve of first compound, second compound 0.03 µM
# [2] = curve of first compound, second compound 0.0949 µM
# [3] = curve of first compound, second compound 0.3 µM
# [4] = curve of first compound, second compound 0.949 µM
# [5] = curve of first compound, second compound 3 µM
# [6] = second compound 0.03 µM, first compound 0.0316 µM
# [7] = second compound 0.03 µM, first compound 0.1 µM
# [8] = second compound 0.0949 µM, first compound 0.0316 µM
# [9] = second compound 0.0949 µM, first compound 0.1 µM
# [10] = second compound 0.3 µM, first compound 0.0316 µM
# [11] = second compound 0.3 µM, first compound 0.1 µM
# [12] = second compound 0.949 µM, first compound 0.0316 µM
# [13] = second compound 0.949 µM, first compound 0.1 µM
# [14] = second compound 3 µM, first compound 0.0316 µM
# [15] = second compound 3 µM, first compound 0.1 µM
# 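Further: compound exposure lasted seven days.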
# 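Wherever viability, T/C is given: 100% = DMSO vehicle control viability.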
smiles,measurement,setting,value
CCN1CCN(Cc2ccc(Nc3ncc(F)c(-c4cc(F)c5nc(C)n(C(C)C)c5c4)n3)nc2)CC1 + Cc1c(S(C)(=O)=O)c(-c2cc(F)cc(N3CCN(c4ccc(NS(=O)(=O)c5ccc(NC(CCN6CCC(C(=O)OCCCP(=O)(O)O)CC6)CSc6ccccc6)c(S(=O)(=O)C(F)(F)F)c5)cc4)CC3)c2)c(-c2ccc(Cl)cc2)n1C(C)C,IC50,"curve of first compound, second compound 0.1 µM",> 1 µM
same,IC50,"curve of first compound, second compound 0.316 µM",0.436 µM
same,IC50,"curve of first compound, second compound 1 µM",0.0239 µM
same,IC50,"curve of first compound, second compound 3.16 µM",< 0.00316 µM
same,IC50,"curve of first compound, second compound 10 µM",< 0.00316 µM
same,"viability, T/C","second compound 0.1 µM, first compound 0.00316 µM",77.4%
same,"viability, T/C","second compound 0.1 µM, first compound 0.01 µM",78.2%
same,"viability, T/C","second compound 0.1 µM, first compound 0.0316 µM",77.3%
same,"viability, T/C","second compound 0.1 µM, first compound 0.1 µM",82.1%
same,"viability, T/C","second compound 0.1 µM, first compound 0.316 µM",83.4%
same,"viability, T/C","second compound 0.1 µM, first compound 1 µM",74.7%
same,"viability, T/C","second compound 0.316 µM, first compound 0.00316 µM",68.9%
same,"viability, T/C","second compound 0.316 µM, first compound 0.01 µM",58.1%
same,"viability, T/C","second compound 0.316 µM, first compound 0.0316 µM",60.5%
same,"viability, T/C","second compound 0.316 µM, first compound 0.1 µM",58.5%
same,"viability, T/C","second compound 0.316 µM, first compound 0.316 µM",51.7%
same,"viability, T/C","second compound 0.316 µM, first compound 1 µM",45.5%
same,"viability, T/C","second compound 1 µM, first compound 0.00316 µM",53.9%
same,"viability, T/C","second compound 1 µM, first compound 0.01 µM",52.9%
same,"viability, T/C","second compound 1 µM, first compound 0.0316 µM",50%
same,"viability, T/C","second compound 1 µM, first compound 0.1 µM",37.7%
same,"viability, T/C","second compound 1 µM, first compound 0.316 µM",22.8%
same,"viability, T/C","second compound 1 µM, first compound 1 µM",9.85%
same,"viability, T/C","second compound 3.16 µM, first compound 0.00316 µM",49%
same,"viability, T/C","second compound 3.16 µM, first compound 0.01 µM",42.5%
same,"viability, T/C","second compound 3.16 µM, first compound 0.0316 µM",42%
same,"viability, T/C","second compound 3.16 µM, first compound 0.1 µM",32.6%
same,"viability, T/C","second compound 3.16 µM, first compound 0.316 µM",15.1%
same,"viability, T/C","second compound 3.16 µM, first compound 1 µM",5.17%
same,"viability, T/C","second compound 10 µM, first compound 0.00316 µM",49.7%
same,"viability, T/C","second compound 10 µM, first compound 0.01 µM",42.3%
same,"viability, T/C","second compound 10 µM, first compound 0.0316 µM",41%
same,"viability, T/C","second compound 10 µM, first compound 0.1 µM",29.9%
same,"viability, T/C","second compound 10 µM, first compound 0.316 µM",15.5%
same,"viability, T/C","second compound 10 µM, first compound 1 µM",3.23%
C#Cc1c(F)ccc2cc(O)cc(-c3ncc4c(N5CC6CCC(C5)N6)nc(OCC56CCCN5CC(F)C6)nc4c3F)c12 (configuration not stated) + CCN1C(C(=O)NC23CCC(C(=O)O)(CC2)CC3)C(c2cccc(Cl)c2F)C2(C(=O)Nc3cc(Cl)ccc32)C12CCCCC2,IC50,[1],> 10 µM
same,IC50,[2],> 10 µM
same,IC50,[3],> 10 µM
same,IC50,[4],> 10 µM
same,IC50,[5],> 10 µM
same,"viability, T/C",[6],98.8%
same,"viability, T/C",[7],106%
same,"viability, T/C","second compound 0.03 µM, first compound 0.316 µM",94.8%
same,"viability, T/C","second compound 0.03 µM, first compound 1 µM",95.8%
same,"viability, T/C","second compound 0.03 µM, first compound 3.16 µM",118%
same,"viability, T/C","second compound 0.03 µM, first compound 10 µM",89.5%
same,"viability, T/C",[8],98.4%
same,"viability, T/C",[9],91.9%
same,"viability, T/C","second compound 0.0949 µM, first compound 0.316 µM",93%
same,"viability, T/C","second compound 0.0949 µM, first compound 1 µM",86%
same,"viability, T/C","second compound 0.0949 µM, first compound 3.16 µM",93.5%
same,"viability, T/C","second compound 0.0949 µM, first compound 10 µM",78.4%
same,"viability, T/C",[10],108%
same,"viability, T/C",[11],99.2%
same,"viability, T/C","second compound 0.3 µM, first compound 0.316 µM",106%
same,"viability, T/C","second compound 0.3 µM, first compound 1 µM",111%
same,"viability, T/C","second compound 0.3 µM, first compound 3.16 µM",81.2%
same,"viability, T/C","second compound 0.3 µM, first compound 10 µM",80.6%
same,"viability, T/C",[12],90%
same,"viability, T/C",[13],90.9%
same,"viability, T/C","second compound 0.949 µM, first compound 0.316 µM",86%
same,"viability, T/C","second compound 0.949 µM, first compound 1 µM",86.9%
same,"viability, T/C","second compound 0.949 µM, first compound 3.16 µM",91.6%
same,"viability, T/C","second compound 0.949 µM, first compound 10 µM",76.5%
same,"viability, T/C",[14],73.1%
same,"viability, T/C",[15],79.2%
same,"viability, T/C","second compound 3 µM, first compound 0.316 µM",77.1%
same,"viability, T/C","second compound 3 µM, first compound 1 µM",67.8%
same,"viability, T/C","second compound 3 µM, first compound 3.16 µM",67.3%
same,"viability, T/C","second compound 3 µM, first compound 10 µM",54.2%
Cn1ncnc1[C@H]1c2n[nH]c(=O)c3cc(F)cc(c23)N[C@@H]1c1ccc(F)cc1 + CCN1C(C(=O)NC23CCC(C(=O)O)(CC2)CC3)C(c2cccc(Cl)c2F)C2(C(=O)Nc3cc(Cl)ccc32)C12CCCCC2,IC50,[1],> 0.1 µM
same,IC50,[2],> 0.1 µM
same,IC50,[3],> 0.1 µM
same,IC50,[4],> 0.1 µM
same,IC50,[5],> 0.1 µM
same,"viability, T/C","second compound 0.03 µM, first compound 0.000316 µM",118%
same,"viability, T/C","second compound 0.03 µM, first compound 0.001 µM",106%
same,"viability, T/C","second compound 0.03 µM, first compound 0.00316 µM",95%
same,"viability, T/C","second compound 0.03 µM, first compound 0.01 µM",85.2%
same,"viability, T/C",[6],86.3%
same,"viability, T/C",[7],81.9%
same,"viability, T/C","second compound 0.0949 µM, first compound 0.000316 µM",103%
same,"viability, T/C","second compound 0.0949 µM, first compound 0.001 µM",112%
same,"viability, T/C","second compound 0.0949 µM, first compound 0.00316 µM",110%
same,"viability, T/C","second compound 0.0949 µM, first compound 0.01 µM",88.2%
same,"viability, T/C",[8],88.5%
same,"viability, T/C",[9],91.9%
same,"viability, T/C","second compound 0.3 µM, first compound 0.000316 µM",116%
same,"viability, T/C","second compound 0.3 µM, first compound 0.001 µM",115%
same,"viability, T/C","second compound 0.3 µM, first compound 0.00316 µM",107%
same,"viability, T/C","second compound 0.3 µM, first compound 0.01 µM",95.2%
same,"viability, T/C",[10],93%
same,"viability, T/C",[11],89.6%
same,"viability, T/C","second compound 0.949 µM, first compound 0.000316 µM",94.2%
same,"viability, T/C","second compound 0.949 µM, first compound 0.001 µM",99.1%
same,"viability, T/C","second compound 0.949 µM, first compound 0.00316 µM",119%
same,"viability, T/C","second compound 0.949 µM, first compound 0.01 µM",92.3%
same,"viability, T/C",[12],75.4%
same,"viability, T/C",[13],76.6%
same,"viability, T/C","second compound 3 µM, first compound 0.000316 µM",82.7%
same,"viability, T/C","second compound 3 µM, first compound 0.001 µM",94%
same,"viability, T/C","second compound 3 µM, first compound 0.00316 µM",75.8%
same,"viability, T/C","second compound 3 µM, first compound 0.01 µM",65.9%
same,"viability, T/C",[14],70.8%
same,"viability, T/C",[15],62.5%
CCN1CCN(Cc2ccc(Nc3ncc(F)c(-c4cc(F)c5nc(C)n(C(C)C)c5c4)n3)nc2)CC1,"viability, T/C",compound 0.00316 µM,90.5% and 99% and 71.9%
same,"viability, T/C",compound 0.01 µM,88.2% and 90.2% and 79.9%
same,"viability, T/C",compound 0.0316 µM,103% and 87.5% and 96.3%
same,"viability, T/C",compound 0.1 µM,99.7% and 97.4% and 104%
same,"viability, T/C",compound 0.316 µM,100% and 102% and 97%
same,"viability, T/C",compound 1 µM,112% and 121% and 102%
same,IC50,curve of compound,> 1 µM
